Results from US9102648B1, “Bioavailable diacylhydrazine ligands for modulating the expression of exogenous genes via an ecdysone receptor complex” (Intrexon Corporation, priority 2003, dated 2015).
Like-named read-outs stand apart in the source and are kept apart here.

What was measured:
[1] = target: GAL4 DBD-CfEcR(DEF)/VP16AD-MmRXRE (Choristoneura fumiferana, UniProt O77240); test: 13B3 Assay (CHO stable cell line, luciferase reporter); details: for Fold Induction, 13B3 Assay, 33 uM: 33 uM ligand; for Fold Induction, 13B3 Assay, 33 uM / Fold Induction, 13B3 Assay, 3.3 uM: RLU ligand treated / RLU DMSO treated cells; for Fold Induction, 13B3 Assay, 33 uM / Fold Induction, 13B3 Assay, 3.3 uM / EC50: average of two wells; for Fold Induction, 13B3 Assay, 3.3 uM: 3.3 uM ligand; for 13B3 assay Rel Max FI: maximum fold induction at any concentration relative to that of GS-E ligand, CHO 13B3 cells; for EC50: read-out: 13B3 EC50, CHO 13B3 stable cell line, luciferase reporter, 48 h
How it was run: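 CHO 13B3 clone stably expressing GAL4 DBD–CfEcR(DEF) and VP16AD–MmRXR(DE) with GAL4 RE–luciferase reporter; cells plated 24 h at 37 °C, then treated with ligands (DMSO stocks diluted 300-fold), 8 concentrations 33–0.01 μM.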

[2] = target: T1, Bombyx mori EcR (VP16 fusion, CVBE switch construct) (Bombyx mori, UniProt P49881); test: Z3 Assay (HEK-293 cells with CVBE and 6XEcRE LacZ, β-galactosidase reporter); details: for Fold Induction, Z3 Assay, 33 uM: 33 uM ligand; for Fold Induction, Z3 Assay, 33 uM / Fold Induction, Z3 Assay, 3.3 uM: ligand treated / DMSO treated cells; for Fold Induction, Z3 Assay, 3.3 uM: 3.3 uM ligand; for Z3 assay Rel Max FI: maximum fold induction at any concentration relative to that of GS-E ligand; for fold induction at 3.3 µM: HEK293, read-out: Fold Induction, Z3 Assay, 3.3 uM; for fold induction at 33 µM: HEK293, read-out: Fold Induction, Z3 Assay, 33 uM
T1 sequence (P49881 86-606): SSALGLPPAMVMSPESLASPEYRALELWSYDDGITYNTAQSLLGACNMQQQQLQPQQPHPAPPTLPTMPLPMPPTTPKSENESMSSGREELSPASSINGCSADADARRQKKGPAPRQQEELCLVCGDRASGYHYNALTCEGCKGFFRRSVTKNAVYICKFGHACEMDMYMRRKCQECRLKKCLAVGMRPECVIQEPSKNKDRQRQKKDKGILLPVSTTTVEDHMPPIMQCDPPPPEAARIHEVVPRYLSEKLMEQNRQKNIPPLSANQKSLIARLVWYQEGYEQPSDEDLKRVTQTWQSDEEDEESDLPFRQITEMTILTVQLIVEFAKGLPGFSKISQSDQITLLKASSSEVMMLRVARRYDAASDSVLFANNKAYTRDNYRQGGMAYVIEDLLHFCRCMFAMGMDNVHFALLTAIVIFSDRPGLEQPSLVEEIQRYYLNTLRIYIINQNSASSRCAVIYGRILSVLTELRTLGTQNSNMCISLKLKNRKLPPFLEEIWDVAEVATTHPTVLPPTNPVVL
T1 sequence (P19793 1-462 partner): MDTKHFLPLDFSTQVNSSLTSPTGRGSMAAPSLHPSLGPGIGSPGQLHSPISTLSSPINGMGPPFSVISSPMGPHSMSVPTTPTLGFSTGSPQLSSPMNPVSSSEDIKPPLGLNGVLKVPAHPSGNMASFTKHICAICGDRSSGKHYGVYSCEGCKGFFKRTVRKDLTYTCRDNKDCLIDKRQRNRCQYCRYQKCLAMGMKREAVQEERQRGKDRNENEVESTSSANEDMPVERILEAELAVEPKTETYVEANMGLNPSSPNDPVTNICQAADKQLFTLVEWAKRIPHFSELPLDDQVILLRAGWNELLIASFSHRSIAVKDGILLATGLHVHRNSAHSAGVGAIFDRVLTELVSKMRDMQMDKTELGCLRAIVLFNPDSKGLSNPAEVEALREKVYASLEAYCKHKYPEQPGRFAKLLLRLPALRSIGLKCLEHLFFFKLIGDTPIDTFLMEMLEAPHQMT

[3] = read-out: Z3 assay EC50, HEK-293 Z3 cells, β-galactosidase reporter, average of two wells

Structure (SMILES) | Fold Induction, 13B3 Assay, 33 uM [1] | Fold Induction, Z3 Assay, 33 uM ([2]; average of two wells) | EC50 [2, 3] | Fold Induction, 13B3 Assay, 3.3 uM [1] | 13B3 assay Rel Max FI [1] | EC50 [1] | Fold Induction, Z3 Assay, 3.3 uM ([2]; average of two wells) | Z3 assay Rel Max FI ([2]; HEK-293 Z3 cells) | EC50 [2] | fold induction at 3.3 µM [2] | fold induction at 33 µM [2]
CC(O)c1ccc(C(=O)NN(C(=O)c2cc(F)cc(F)c2)C(C)(C)C)cc1 (stereo not drawn) [RG-100342] | 611 | 427 | 10200 nM |  |  |  |  |  |  |  | 
CCc1c(OC)cccc1C(=O)NN(C(=O)c1cc(C)ccc1[N+](=O)[O-])C(C)(C)C [RG-115162] | 320 | 772 | 69 nM | 755 | 0.630 | 811 nM | 334 | 0.988 |  |  | 
CCc1c(C(=O)NN(C(=O)c2ccccc2OC)C(C)(C)C)ccc2c1OCCO2 [RG-115244] | 573 | 816 | 85 nM | 2404 | 0.663 | 369 nM | 283 | 0.959 |  |  | 
CCCC(N(NC(=O)c1cccc(OC)c1C)C(=O)c1cc(C)cc(C)c1)C(C)(C)C (stereo not drawn) [RG-115823] |  | 1050 | 20 nM |  |  |  | 1440 | 0.933 |  |  | 
CCc1c(OC)cccc1C(=O)NN(C(=O)c1cc(C)cc(C)c1)C(CC)C(C)(C)C (stereo not drawn) [RG-115832] |  | 621 | 37 nM |  |  |  | 1564 | 1.002 |  |  | 
CCc1c(OC)cccc1C(=O)NN(C(=O)c1cc(OC)c(C)c(OC)c1)C(CC)C(C)(C)C (stereo not drawn) [RG-115831] |  | 544 | 102 nM |  |  |  | 1481 | 0.937 |  |  | 
CCCC(N(NC(=O)c1cccc(OC)c1CC)C(=O)c1cc(OC)c(C)c(OC)c1)C(C)(C)C (stereo not drawn) [RG-115829, 3,5-Dimethoxy-4-methyl-benzoic acid N-(1-tert-butyl-butyl)-N′-(2-ethyl-3-methoxy-benzoyl)-hydrazide] |  |  |  |  |  |  |  | 0.937 | 58 nM | 1440 | 319
CCCC(N(NC(=O)c1cccc(OC)c1C)C(=O)c1cc(OC)c(C)c(OC)c1)C(C)(C)C (stereo not drawn) [RG-115824] |  | 737 | 46 nM |  |  |  | 895 | 0.806 |  |  | 
CCCC(N(NC(=O)c1cccc(OC)c1CC)C(=O)c1cc(C)cc(C)c1)C(C)(C)C (stereo not drawn) [RG-115830] |  | 983 | 45 nM |  |  |  | 1604 | 1.020 |  |  | 
CCc1c(C(=O)NN(C(=O)c2ccc(F)c(C(F)(F)F)c2)C(C)(C)C)ccc2c1OCCO2 [RG-115280] |  | 376 |  |  |  |  |  |  |  |  | 
CCC(N(NC(=O)c1cccc(OC)c1C)C(=O)c1cc(OC)c(C)c(OC)c1)C(C)(C)C (stereo not drawn) [RG-115820, 3,5-dimethoxy-4-methyl-benzoic acid N-(1-ethyl-2,2-dimethyl-propyl)-N′-(3-methoxy-2-methyl-benzoyl)-hydrazide] |  |  |  |  |  |  |  | 0.887 | 203 nM | 1410 | 701
